Assay results: US20080187492A1, “Drosophila Models For Diseases Affecting Learning and Memory” (priority 2004, published 2008)

What was measured:
Type in all cases: in vivo, Drosophila melanogaster
[1] = tested on: FS (dFMR1-3+frame shifted rescue fragment) flies; experiment: Naive courtship behavior (courtship index toward virgin female), FS flies
From the text: (§1) Learning and memory (cognitive abilities) can be examined in Drosophila by utilizing several available learning and memory paradigms. The most popular is a classical conditioning paradigm in which the flies learn to associate electric shocks with olfactory cues (Dudia et al, 1976; Davis, 1993; Tully, 1994). An alternative paradigm to study learning and memory in Drosophila is called conditioned courtship, wherein a male fly learns to modify his courtship behavior after experience with an unreceptive female; it is a multi-sensory paradigm involving associations from more then one sensory input (Siegel and Hall, 1979; for review see Hall, 1994). It is a more complex associative learning paradigm and was utilized to assay learning and memory in this article to elucidate the role of dFMR1 in learning and memory (Tompkins et al, 1980; Tompkins et al, 1982; Tompkins et al, 1983; Tompkins et al, 1984; Ackerman and Siegel, 1986). Courting male flies perform a characteristic sequence of behaviors: orienting toward and following the female, tapping her with his forelegs, vibrating one or both wings, licking her genitalia, and attempting copulation (Sturtevant, 1915; Bastock and Manning, 1955; Bastock, 1956). These behaviors are repeated with some variation until successful copulation occurs. Virgin females will generally respond by mating; however, recently mated females will be unreceptive and will not allow copulation to occur (Spieth, 1974), they display different behaviors (Bastock and Manning, 1955; Connolly and Cook, 1973) and have an altered, although somewhat overlapping, pheromonal profile (Cobb and Ferveur, 1996). The naive male will find a previously mated female to have a pheromonal repertoire that is less provocative then that of a virgin female target. A naive male paired with a mated female will initially court her, but his courtship activity soon decreases; after 1 hour of experience with the mated female, his courtship when subsequently paired with a virgin female remains depressed for 2-3 hours (Siegel and Hall, 1979). This effect is not a general suppression of all courtship activity since a male's tendency to court an immature male is not suppressed (Gailey et al, 1984). […] These behaviors are quantified as a courtship index (CI) which is defined as the percentage of time a male fly spends performing any of the six courtship steps toward a target female in a ten minute test period. A decrease in CI after training with a previously mated female is indicative of behavioral plasticity in the form of learning or memory.
Since we use female targets that are not etherized (therefore they are freely moving), and the w118 and dfmr1-3 flies may have slightly impaired visual acuity due to lack of eye pigmentation, and since visual inputs affect courtship behavior, all subsequent experiments were done utilizing only the genotypes Rescue: dfmr1-3+wild type rescue fragment, and FS: dfmr1-3+frame shifted rescue fragment. Both of these genotypes have more pigmentation and similar levels of eye pigmentation to each other. For FIGS. 4 and 5, a high concentration of MPEP (1,000 μg/ml) was used. For the remainder of the experiments the food was either control (CT) or exactly the same control food containing the appropriate concentration of MPEP (M). The position of the CT and the M are indicative of the point at which the group was on the particular food. The first letter indicates the food type that the larvae grew up on, and the second letter denotes the food type that the adult flies were placed on within four hours of eclosion, […] fresh food.
Naive males were placed in the training chamber for one hour with no female, and then placed with a virgin target female for a ten-minute interval. The naive courtship behavior was reduced by high MPEP concentration in Rescue (p<0.0001) and FS (p<0.0005) lines, and it was depressed to similar levels by high MPEP treatment in the Rescue and FS groups (FIG. 2A). […]

[2] = tested on: Rescue (dFMR1-3+wild type rescue fragment) flies; experiment: Naive courtship behavior (courtship index toward virgin female), Rescue flies; settings: for naive courtship: 5 day old
From the text: as §1
Since we use female targets that are not etherized (therefore they are freely moving), and the w118 and dfmr1-3 flies may have slightly impaired visual acuity due to lack of eye pigmentation, and since visual inputs affect courtship behavior, all subsequent experiments were done utilizing only the genotypes Rescue: dfmr1-3+wild type rescue fragment, and FS: dfmr1-3+frame shifted rescue fragment. Both of these genotypes have more pigmentation and similar levels of eye pigmentation to each other. For FIGS. 4 and 5, a high concentration of MPEP (1,000 μg/ml) was used. For the remainder of the experiments the food was either control (CT) or exactly the same control food containing the appropriate concentration of MPEP (M). The position of the CT and the M are indicative of the point at which the group was on the particular food. The first letter indicates the food type that the larvae grew up on, and the second letter denotes the food type that the adult flies were placed on within four hours of eclosion, and for the four following days, until the day before testing when they were placed on fresh food.
In order to determine if MPEP can get into the Drosophila central nervous system (CNS) through feeding behavior, we mixed MPEP into the food at a concentration of 1,000 μg/ml ([…]). Males were raised on CT food and then placed on either CT or M food. […]

[3] = tested on: FS (dFMR1-3+frame shifted rescue fragment) flies; experiment: Conditioned courtship: short-term memory at 60 minutes, virgin female target, FS flies
Procedure: (§2) Short-term memory. The model was further extended to encompass short-term memory at 60 minutes after training. After the one hour training session with a previously mated female, the female is removed and the male is placed in a holding chamber for 60 minutes, then subsequently placed in a testing chamber with a virgin female target to assess short-term memory (FIG. 4C). […] CT-CT FS flies court just as vigorously at 60 minutes after training as naive CT-CT FS flies. […] The FS groups that were treated with MPEP in development alone, adulthood alone or in both development and adulthood display experience dependent reduction of courtship activity at 60 minutes after training when compared to group matched naives M-M FS, p<0.0001, CT-M FS, p<0.0001 and M-CT FS, p<0.0001. […] Additionally, flies were tested for ability to discriminate between virgin and previously mated females (FIG. 4D).
(§3) In order to examine short-term memory at 60 minutes after training, after the one hour training session with a previously mated female, the female is removed and the male is placed in a holding chamber for 60 minutes, then subsequently placed in a testing chamber with a virgin female (FIG. 9B). […] CT-CT FS flies court just as vigorously at 60 minutes after training as naive CT-CT FS flies. […] The FS groups that were treated with MPEP in development alone, adulthood alone or in both development and adulthood display experience dependent reduction of courtship activity at 60 minutes after training when compared to group matched naives M-M FS.

[4] = tested on: Rescue (dFMR1-3+wild type rescue fragment) flies; experiment: Conditioned courtship: short-term memory at 60 minutes, virgin female target, Rescue flies; settings: 5 day old; MPEP (20 μg/ml), NaCl (5 and 50 mM), LY341495 (400 nM)
Procedure: as §2, §3

[5] = tested on: FS flies lacking dfmr1 activity; experiment: Short-term memory (60 mins) with mated female targets, FS flies
Procedure: (§4) Effects of drug treatment on short-term memory (60 mins) in flies lacking dfmr1 activity with mated female targets. Short-term (60 min.) memory was measured in Rescue and FS flies that were either fed control food or underwent various drug treatments as described below. Short-term memory was measured by placing a trained male in a holding chamber for 60 minutes (after being trained for one hour with a previously mated female), then subsequently placing him in a testing chamber with a mated female target for a ten-minute courtship interval (C.I.). This C.I. was compared to the C.I. obtained for naïve courtship of a previously mated female, i.e., C.I. during the first 10 minutes of the training session with a previously mated female. Additionally, for reference the C.I. during the last 10 minutes of the training period was also determined. Numbers of flies are indicated above each bar for all groups. The levels of significance are indicated as follows; *=p<0.05; **=p<0.005; ***=p<0.0001.
(§5) Restoration of short-term memory with mGluR antagonists. To establish that the failure to observe memory was not due to a problem with recognizing or processing the appropriate cues from the virgin female target, we used a modified version of the conditioned courtship paradigm where the male is paired with a mated female target subsequent to training (Kane et al., 1997; Joiner and Griffith, 1997; Joiner and Griffith, 1999; Kamashev et al., 1999). Again, with pharmacologic treatment it is necessary to utilize more then one compound to confirm the specificity of the target, so in this case we used four mGluR antagonists. […] It is also important to note that the robust deficit in synaptic plasticity in FS flies, with regard to memory, is a critical extension of the previous models of Fragile X syndrome in model organisms, since this is one of the most prominent aspects of the human disorder. Furthermore, we have shown that antagonism of the mGluRs can restore synaptic plasticity in the Drosophila model of Fragile X syndrome.

Rescue flies = experiment: Short-term memory (60 mins) with mated female targets, Rescue flies
Procedure: as §4, §5

[6] = 86 μM MPEP, 400 nM LY341495, 573 μM MPPG, 348 μM MTPG
[7] = 5 day old, 8.6 mM MPEP, 400 nM LY341495

Row | Compound | naive courtship ([1]; 5 day old, NaCl at 5 or 50 mM in food) | naive courtship ([2]; LiCl 5 mM, NaCl 5 mM in food) | naive courtship ([2]; LiCl 50 mM, NaCl 50 mM in food) | short term memory ([3]; 5 day old, NaCl (5 and 50 mM)) | short term memory [4] | naive courtship activity ([1]; 5 day old adults, 573 mM MPPG (p<0.0001) or 348 μM MTPG (p<0.005)) | naive courtship activity ([2]; 5 day old adults, 573 mM MPPG or 348 μM MTPG, p<0.0001 for both) | short-term memory ([3]; 20-day-old, concentration not given) | short-term memory, mated female target [5, 6] | memory at 60 minutes post training, mated female target [5, 7] | short-term memory, mated female target (Rescue flies; [6]) | memory at 60 minutes post training, mated female target (Rescue flies; [7])
1 | [Cl-].[Na+] [NaCl] | did not restore naive courtship | did not suppress naive courtship | suppressed naive courtship | had no effect | did not affect short term memory | – | – | – | – | – | – | –
2 | CC(N)(C(=O)O)c1ccc(P(=O)(O)O)cc1 (racemic) [MPPG, (RS)-alpha-methyl-4-phosphoonophenylglycine] | – | – | – | – | – | significant increase in courtship activity | significant decrease in courtship activity | rescue short-term memory | demonstrated restoration of short-term memory | demonstrate memory at 60 minutes post training | demonstrated intact short-term memory | demonstrate memory at 60 minutes post training
